Marks after values point to notes of the source that are not given here.
How the values were obtained:
Phakopsora pachyrhizi = assay: Test A: Asian soybean rust control on soybean seedlings; type: in vivo; conditions: 10 ppm test suspension; soybean seedlings sprayed the day before inoculation; 100 = 100% disease control, 0 = none
Text: (§1) General protocol for preparing test suspensions for Tests A-C: the test compounds were first dissolved in acetone in an amount equal to 3% of the final volume and then suspended at the desired concentration (in ppm) in acetone and purified water (50/50 mix by volume) containing 250 ppm of the surfactant PEG400 (polyhydric alcohol esters). The resulting test suspensions were then used in Tests A-C.
(§2) The test solution was sprayed to the point of run-off on soybean seedlings. The following day the seedlings were inoculated with a spore suspension of Phakopsora pachyrhizi (the causal agent of Asian soybean rust) and incubated in a saturated atmosphere at 22° C. for 24 h, and then moved to a growth chamber at 22° C. for 8 days, after which time visual disease ratings were made.
(§3) A rating of 100 indicates 100% disease control and a rating of 0 indicates no disease control (relative to the controls). A dash (-) indicates the compound was not tested.

[1] = system: Puccinia recondita f. sp. tritici; assay: Test C: wheat leaf rust control on wheat seedlings; type: in vivo; conditions: wheat seedlings sprayed the day before inoculation, 100 = 100% disease control, 0 = none
Text: as §1
as §2, with “wheat” for “soybean”, “Puccinia recondita f. sp. tritici” for “Phakopsora pachyrhizi”, “wheat leaf” for “Asian soybean”, “20°” for “22°”, “7” for “8”, “time” for “time visual”
as §3

Zymoseptoria tritici = assay: Test B: wheat leaf blotch control on wheat seedlings; type: in vivo; conditions: 250 ppm test suspension (asterisk); wheat seedlings sprayed the day before inoculation; 100 = 100% disease control, 0 = none
Text: as §1
The test solution was sprayed to the point of run-off on wheat seedlings. The following day the seedlings were inoculated with a spore suspension of Zymoseptoria tritici (the causal agent of wheat leaf blotch) and incubated in a saturated atmosphere at 24° C. for 48 h, and then moved to a growth chamber at 20° C. for 17 days, after which time disease ratings were made.
as §3

Row | Structure (SMILES) | Test A disease control rating (Phakopsora pachyrhizi) | melting point | Test C disease control rating ([1]; 10 ppm test suspension) | Test B disease control rating (Zymoseptoria tritici) | Test C disease control rating ([1]; 50 ppm test suspension)
1 | O=S1(=Nc2ccc(-c3noc(C(F)(F)F)n3)cc2)c2ccccc2-c2ccccc21 [Compound 38] | 0% | 230 to 234 °C | 0% | 1* % | –
2 | O=S1(=NCc2ccc(-c3noc(C(F)(F)F)n3)cc2)c2ccccc2-c2ccccc21 [Compound 41] | 97% | 120 to 124 °C | 86% | 86* % | –
3 | O=S1(=NCc2ccc(-c3noc(C(F)(F)F)n3)cc2)CCCC1 [Compound 51] | 100% | 58 to 63 °C | – | 52* % | 100** %

— patent publication US20200345010A1, “FUNGICIDAL OXADIAZOLES” (FMC Corporation, priority 2019, published 2020)
